Test results from ChEMBL document CHEMBL1201862, “PubChem BioAssay data set” (2004).
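Cells were grown in 96-well plates and exposed to each compound for 48 hours at five concentrations; endpoints were interpolated linearly between bracketing concentrations, or set to the highest concentration if not reached. Abbreviation: GI50, concentration required for 50% inhibition of growth.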 Active and inactive are the calls of the source. Cut-off read from the data, not from the text of the source: active = GI50 up to about 1.1 µM and inactive = higher.

Tests used:
Experiment in all cases: DTP human tumour cell line panel, 48 h
SNB-78 = tested on: SNB-78
KM-20L2 = tested on: KM-20L2
HOP-18 = tested on: HOP-18
XF498 = tested on: XF498
DMS-114 = tested on: DMS-114
M19-MEL = tested on: M19-MEL
DMS-273 = tested on: DMS-273
RXF 631 = tested on: RXF 631
DLD-1 = tested on: DLD-1

Measured: GI50

O=[N+]([O-])c1cccnc1S(=O)(=O)c1ccccc1
inactive: SNB-78 11.2 µM | KM-20L2 12.8 µM | HOP-18 12.9 µM | XF498 13.1 µM | DMS-114 3.18 µM | M19-MEL 13.5 µM | DMS-273 7.87 µM | RXF 631 2.86 µM | DLD-1 2.49 µM

O=C(O)c1oc2cccc3c2c1CCC3
inactive: SNB-78 > 100 µM | KM-20L2 > 10 µM | XF498 > 100 µM | DMS-114 > 100 µM | M19-MEL > 100 µM | DMS-273 > 100 µM | RXF 631 > 100 µM | DLD-1 > 100 µM

O=C(O)Cn1c(=O)[nH]c(=O)c2[nH]cnc21
inactive: SNB-78 > 100 µM | KM-20L2 > 100 µM | HOP-18 > 100 µM | DMS-114 > 100 µM | M19-MEL > 100 µM | DMS-273 > 100 µM | RXF 631 > 100 µM | DLD-1 > 100 µM

O=C(NCC(=O)N1CCOC1=O)OCc1ccccc1
inactive: SNB-78 > 100 µM | KM-20L2 > 100 µM | HOP-18 > 100 µM | XF498 > 100 µM | DMS-114 > 100 µM | M19-MEL > 100 µM | DMS-273 > 100 µM | DLD-1 > 100 µM

OC1=CN=C(c2ccccc2)Oc2ccccc21
inactive: SNB-78 80.4 µM | KM-20L2 > 100 µM | DMS-114 > 100 µM | M19-MEL > 100 µM | DMS-273 > 100 µM | RXF 631 > 100 µM | DLD-1 > 100 µM

COC(=O)N/N=C(\C)C(CN1CCCCC1)C(C1=C(O)c2ccccc2OC1)c1ccccc1 (stereo unspecified)
inactive: SNB-78 > 100 µM | KM-20L2 > 100 µM | HOP-18 > 100 µM | XF498 > 100 µM | DMS-114 > 100 µM | M19-MEL > 100 µM | DMS-273 > 100 µM | DLD-1 > 100 µM

Cc1cc(N(CCC#N)S(=O)(=O)c2ccccc2)ccc1/C=C1\N=C(c2ccc(Cl)cc2)OC1=O
inactive: SNB-78 > 100 µM | KM-20L2 > 100 µM | XF498 > 100 µM | DMS-114 > 100 µM | DMS-273 > 100 µM | DLD-1 > 100 µM

CN(O)C(=O)Cc1ccccc1
inactive: SNB-78 > 100 µM | KM-20L2 > 100 µM | XF498 > 100 µM | DMS-114 > 100 µM | M19-MEL > 100 µM | DMS-273 > 100 µM | DLD-1 > 100 µM

C/C(=C\CNc1ncnc2c1ncn2C1CCCCO1)COP(=O)(O)O (stereo unspecified)
inactive: SNB-78 > 100 µM | KM-20L2 > 100 µM | HOP-18 > 100 µM | XF498 > 100 µM | DMS-114 > 100 µM | M19-MEL > 100 µM | DMS-273 > 100 µM | RXF 631 > 100 µM | DLD-1 > 100 µM

CCOC(=O)C=C1CCN(C(=O)c2ccccc2)CC1
inactive: SNB-78 > 100 µM | KM-20L2 > 100 µM | HOP-18 > 100 µM | XF498 > 100 µM | M19-MEL > 100 µM | DMS-273 > 100 µM | RXF 631 > 100 µM | DLD-1 > 100 µM

CC(C)(C)c1ccc2c(c1)C(O)(c1ccccc1)c1cc(C(C)(C)C)ccc1C2(O)C(F)(F)F (stereo unspecified)
inactive: KM-20L2 1.59 µM | HOP-18 2.2 µM | XF498 1.53 µM | DMS-114 2.04 µM | M19-MEL 1.85 µM | DMS-273 1.74 µM | DLD-1 2.03 µM

COc1ccc2c(c1)N1CCc3cc(OC)c(OC)cc3C1C2 (stereo unspecified)
inactive: SNB-78 > 100 µM | KM-20L2 73.3 µM | HOP-18 > 100 µM | XF498 26.5 µM | DMS-114 37.6 µM | M19-MEL 41.2 µM | DMS-273 43.3 µM | DLD-1 39.7 µM

O=C(CC1=Nc2nnc(CCCCCCCc3nnc4n3C(=O)C(CC(=O)c3ccccc3)=N4)n2C1=O)c1ccccc1
inactive: KM-20L2 > 100 µM | HOP-18 > 100 µM | XF498 > 100 µM | DMS-114 > 100 µM | M19-MEL > 100 µM | DLD-1 > 100 µM

O=c1[nH]c(=O)n(C2CC(O)C(CO)O2)cc1C#Cc1ccc(F)cc1 (stereo unspecified)
inactive: SNB-78 > 100 µM | KM-20L2 > 100 µM | HOP-18 > 100 µM | XF498 > 100 µM | DMS-114 > 100 µM | M19-MEL > 100 µM | DMS-273 > 100 µM | DLD-1 > 100 µM

N=C(N)NNC(=O)CCn1[nH]c(=O)c(Cl)c(Cl)c1=O
inactive: KM-20L2 > 100 µM | HOP-18 > 100 µM | XF498 > 100 µM | DMS-114 > 100 µM | M19-MEL > 100 µM | DMS-273 > 100 µM | RXF 631 > 100 µM | DLD-1 > 100 µM

Cc1ccc(NC(=O)CSc2nnc(-c3ccc(/N=C\c4ccc(Cl)cc4)cc3)o2)cc1
inactive: SNB-78 > 100 µM | KM-20L2 > 100 µM | HOP-18 > 100 µM | XF498 > 100 µM | DMS-114 > 100 µM | M19-MEL > 100 µM | DMS-273 > 100 µM

C=C=C(CC)C(C(=O)OC)N(CC)CC (stereo unspecified)
inactive: SNB-78 > 100 µM | KM-20L2 > 100 µM | HOP-18 > 100 µM | XF498 > 100 µM | DMS-114 > 100 µM | M19-MEL > 100 µM | RXF 631 > 100 µM | DLD-1 > 100 µM

O=C1[C@@H]2C(c3ccncc3)=NO[C@@H]2C(=O)N1c1ccc(Cc2ccc(N3C(=O)[C@H]4C(c5ccncc5)=NO[C@H]4C3=O)cc2)cc1
inactive: SNB-78 > 100 µM | KM-20L2 > 100 µM | HOP-18 > 100 µM | DMS-114 > 100 µM | M19-MEL > 100 µM | DMS-273 > 100 µM | RXF 631 > 100 µM | DLD-1 > 100 µM

O=C(Nc1ccn(CCI)c(=O)n1)c1ccccc1
inactive: SNB-78 > 100 µM | KM-20L2 > 100 µM | HOP-18 > 100 µM | DMS-114 > 100 µM | M19-MEL > 100 µM | DMS-273 > 100 µM | DLD-1 > 100 µM

O=C1OC(c2ccccc2)=N/C1=C\c1ccc2ccccc2c1
inactive: SNB-78 > 100 µM | KM-20L2 > 100 µM | HOP-18 > 100 µM | XF498 > 100 µM | DMS-114 > 100 µM | M19-MEL > 100 µM | DLD-1 > 100 µM

CC(O)C(N/C=C1/N=C(c2ccccc2)OC1=O)C(=O)O (stereo unspecified)
inactive: SNB-78 > 100 µM | KM-20L2 > 100 µM | HOP-18 > 100 µM | XF498 > 100 µM | DMS-114 > 100 µM | M19-MEL > 100 µM | DMS-273 > 100 µM | RXF 631 > 100 µM | DLD-1 > 100 µM

CSc1nc(O)c2cn(Cc3ccccc3)nc2n1
inactive: SNB-78 > 100 µM | KM-20L2 > 67.5 µM | HOP-18 > 100 µM | DMS-114 > 100 µM | M19-MEL > 100 µM | DMS-273 > 100 µM | DLD-1 > 70.5 µM

CCOC(=O)c1nc(C)oc1C(F)(F)F
inactive: SNB-78 > 100 µM | KM-20L2 > 100 µM | XF498 > 100 µM | DMS-114 > 100 µM | M19-MEL > 100 µM | DLD-1 > 100 µM

ONc1ncnc2[nH]cnc12
inactive: KM-20L2 > 100 µM | XF498 > 100 µM | DMS-114 > 100 µM | M19-MEL > 100 µM | DMS-273 > 100 µM | DLD-1 > 100 µM

OC(CCl)CN1CC[N+]2(CC1)CC[N+]1(CCN(CC(O)CCl)CC1)CC2 (stereo unspecified) [PROSPIDIUM CHLORIDE]
inactive: KM-20L2 > 50 µM | HOP-18 > 50 µM | XF498 > 50 µM | DMS-114 41.6 µM | M19-MEL > 50 µM | DMS-273 > 50 µM
